In article PMC9827108 (Cancer Discovery, 2022):
Read-outs that look alike come from different tables or passages of the source.

How the values were obtained:
[1] = tested on: patients with EGFRm, MET-amplified/overexpressed NSCLC; assay type: in vivo, human
[2] = assay type: in vivo, human; conditions: Parts B and D

| SMILES | Any AE grade ≥3 possibly causally related to the labelled drug(s) only ([1]; All Part B) | Any AE leading to discontinuation of the labelled drug ([1]; All Part B) | Any AE leading to interruption or reduction of the labelled drug ([1]; All Part B) | Any SAE leading to discontinuation of the labelled drug ([1]; All Part B) | Any SAE leading to interruption or reduction of the labelled drug ([1]; All Part B) | Any SAE possibly causally related to the labelled drug(s) only ([1]; All Part B) | Labelled drug discontinued due to possibly causally related AE: vomiting ([1]; All Part B) | Any AE grade ≥3 possibly causally related to the labelled drug(s) only ([1]; Part B1) | Any AE leading to discontinuation of the labelled drug ([1]; Part B1) | Any AE leading to interruption or reduction of the labelled drug ([1]; Part B1) | Any SAE leading to discontinuation of the labelled drug ([1]; Part B1) | Any SAE leading to interruption or reduction of the labelled drug ([1]; Part B1) | Any SAE possibly causally related to the labelled drug(s) only ([1]; Part B1) | Any AE grade ≥3 possibly causally related to the labelled drug(s) only ([1]; Part B2) | Any AE leading to discontinuation of the labelled drug ([1]; Part B2) | Any AE leading to interruption or reduction of the labelled drug ([1]; Part B2) | Any SAE leading to discontinuation of the labelled drug ([1]; Part B2) | Any SAE leading to interruption or reduction of the labelled drug ([1]; Part B2) | Any SAE possibly causally related to the labelled drug(s) only ([1]; Part B2) | Any AE grade ≥3 possibly causally related to the labelled drug(s) only ([1]; Part B3) | further results |
| --- | --- | --- | --- | --- | --- | --- | --- | --- | --- | --- | --- | --- | --- | --- | --- | --- | --- | --- | --- | --- | --- |
| C=CC(=O)Nc1cc(Nc2nccc(-c3cn(C)c4ccccc34)n2)c(OC)cc1N(C)CCN(C)C [osimertinib] | 8 (6) n (%) | 24 (17) n (%) | 59 (43%) n (%) | 20 (14) n (%) | 27 (20) n (%) | 0 n (%) | 2 (1%) n (%) | 3 (4) n (%) | 12 (17) n (%) | 22 (32) n (%) | 9 (13) n (%) | 10 (14) n (%) | 0 n (%) | 3 (6) n (%) | 9 (18) n (%) | 25 (49) n (%) | 8 (16) n (%) | 11 (22) n (%) | 0 n (%) | 2 (11) n (%) | Labelled drug discontinued due to possibly causally related AE: pneumonitis ([1]; All Part B): 3 (2%) n (%); Any AE leading to interruption or reduction of the labelled drug ([1]; All Part B, listed as Osimertinib): 59 (43) n (%); Any AE leading to discontinuation of the labelled drug ([1]; Part B3): 3 (17) n (%); Any AE leading to interruption or reduction of the labelled drug ([1]; Part B3): 12 (67) n (%); Any SAE leading to discontinuation of the labelled drug ([1]; Part B3): 3 (17) n (%); Any SAE leading to interruption or reduction of the labelled drug ([1]; Part B3): 6 (33) n (%); Any SAE possibly causally related to the labelled drug(s) only ([1]; Part B3): 0 n (%); Any AE grade ≥3 possibly causally related to the labelled drug(s) only ([1]; Part D): 2 (5) n (%); Any AE leading to discontinuation of the labelled drug ([1]; Part D): 8 (19) n (%); Any AE leading to interruption or reduction of the labelled drug ([1]; Part D): 13 (31) n (%); Any SAE leading to discontinuation of the labelled drug ([1]; Part D): 2 (5) n (%); Any SAE leading to interruption or reduction of the labelled drug ([1]; Part D): 10 (24) n (%); Any SAE possibly causally related to the labelled drug(s) only ([1]; Part D): 1 (2) n (%) |
| C[C@@H](c1ccc2nccn2c1)n1nnc2ncc(-c3cnn(C)c3)nc21 [savolitinib, (S)-1-(1-(Imidazo[1,2-a]pyridin-6-yl)ethyl)-6-(1-methyl-1H-pyrazol-4-yl)-1H-[1,2, 3]triazolo[4,5-b]pyrazine] | 34 (25) n (%) | 49 (36) n (%) | 61 (44%) n (%) | 28 (20) n (%) | 20 (14) n (%) | 15 (11) n (%) | 4 (3%) n (%) | 14 (20) n (%) | 19 (28) n (%) | 27 (39) n (%) | 11 (16) n (%) | 9 (13) n (%) | 6 (9) n (%) | 13 (25) n (%) | 20 (39) n (%) | 25 (49) n (%) | 11 (22) n (%) | 9 (18) n (%) | 6 (12) n (%) | 7 (39) n (%) | Any AE leading to interruption or reduction of the labelled drug ([1]; All Part B, listed as Savolitinib): 61 (44) n (%); Deaths due to AEs considered possibly causally related to study drug ([1]; Part B2): one case was considered possibly related to savolitinib (acute renal failure); Any AE leading to discontinuation of the labelled drug ([1]; Part B3): 10 (56) n (%); Any AE leading to interruption or reduction of the labelled drug ([1]; Part B3): 9 (50) n (%); Any SAE leading to discontinuation of the labelled drug ([1]; Part B3): 6 (33) n (%); Any SAE leading to interruption or reduction of the labelled drug ([1]; Part B3): 2 (11) n (%); Any SAE possibly causally related to the labelled drug(s) only ([1]; Part B3): 3 (17) n (%); Any AE grade ≥3 possibly causally related to the labelled drug(s) only ([1]; Part D): 5 (12) n (%); Any AE leading to discontinuation of the labelled drug ([1]; Part D): 15 (36) n (%); Any AE leading to interruption or reduction of the labelled drug ([1]; Part D): 16 (38) n (%); Any SAE leading to discontinuation of the labelled drug ([1]; Part D): 6 (14) n (%); Any SAE leading to interruption or reduction of the labelled drug ([1]; Part D): 7 (17) n (%); Any SAE possibly causally related to the labelled drug(s) only ([1]; Part D): 2 (5) n (%); Labelled drug discontinued due to possibly causally related AE: myalgia ([1]; Part D): 3 (7%) n (%); Labelled drug discontinued due to possibly causally related AE: pyrexia ([1]; Part D): 2 (5%) n (%); Labelled drug discontinued due to possibly causally related AE: rash ([1]; Part D): 2 (5%) n (%); Accumulation and time dependence of PK at steady state ([2]; multiple dosing): neither apparent accumulation nor time-dependent PK changes upon multiple dosing; half-life ([2]; human, plasma, oral, Mean terminal elimination half-life (t1/2λz), single and multiple dosing): 2 to 4 h; Tmax ([2]; human, plasma, oral, Median tmax and tssmax, savolitinib 600 mg/300 mg q.d. + osimertinib 80 mg q.d.): 2 to 4 h |
